Reference: ChEMBL document CHEMBL4483862, “Open-source discovery of chemical leads for next-generation chemoprotective antimalarials” (2018)

System: Plasmodium berghei
Assay: Luciferase/luciferin-expressing antifolate-resistant parasites were used to infect a culture of HepG2 cells that were pre-incubated with compounds. Infected hepatocytes emit light due to the luciferase reaction. Assay results are presented as the percent inhibition of light emission compared to control. […]
Format: functional
Conditions: sporozoite; for IC50: read-out: LUCIFERASE INFECTION ASSAY - IC50; for IC90: read-out: LUCIFERASE INFECTION ASSAY - IC90

Compound | IC50 [µM] | IC90 [µM]
CCOC(=O)c1sc(NC(=O)c2ccc(C)s2)cc1C | > 10 | > 10
Fc1ccc(NC(=S)NN=C2c3ccccc3-c3ccccc32)c(F)c1 | > 10 | > 10
Cc1ccc(/N=C/c2cc3ccccc3nc2Sc2ccc(C)cc2)cc1 | > 10 | > 10
O=C(Nc1ccccc1)C1=C(N2CCOCC2)/C(=C/c2ccc(Br)cc2)CC1 | > 10 | > 10
N#C/C(=C\c1ccc(OCc2ccccc2)c(OCc2ccccc2)c1)c1nnc2n1CCCCC2 | > 10 | > 10
Cc1c(C2=CCCCC2)c2ccccn2c1C(=O)c1cc2c(C)nn(-c3ccccc3)c2s1 | > 10 | > 10
Brc1ccc(/C=N/c2ccccc2N2CCOCC2)cc1 | > 10 | > 10
CCOC(=O)c1ccc(-n2c(C)cc(/C=C(\C#N)c3nc4ccccc4[nH]3)c2C)cc1 | > 10 | > 10
C(=N\c1nc2ccccc2nc1N1CCOCC1)/N1CCN(C(c2ccccc2)c2ccccc2)CC1 | > 10 | > 10
Fc1cccc(F)c1/C=N/c1ccccc1N1CCOCC1 | > 10 | > 10
N#Cc1ccc(C=C(C(=O)NCc2ccccc2)C(=O)NCc2ccccc2)cc1 | > 10 | > 10
O=S(=O)(N=C1c2ccccc2/C(=N/S(=O)(=O)c2ccc(Cl)cc2)C2C3C=CC(CC3)C12)c1ccc(Cl)cc1 (stereo unspecified) | 8.44 | > 10
N#CCCn1cc(/C=N/Nc2nc3ccccc3s2)c(-c2ccc(F)cc2)n1 | > 10 | > 10
O=C1OC(C23CC4CC(CC(C4)C2)C3)=N/C1=C\c1ccc(N2CCOCC2)cc1 | > 10 | > 10
Cc1nn(-c2ccccc2)c(Cl)c1/C=N/N1CCN(c2ccc(Cl)cc2)CC1 | > 10 | > 10
O=C1OC(C23CC4CC(CC(C4)C2)C3)=N/C1=C\c1ccc(Cl)c([N+](=O)[O-])c1 | > 10 | > 10
C/C(=N\Nc1c(Cl)cc(Cl)cc1Cl)c1ccc(N2CCOCC2)cc1 | 4.84 | > 10

Compound | IC50 [µM] | IC90 [µM]
CN1/C(=C\C=N\NC(=O)c2cnccn2)C(C)(C)c2ccccc21 | > 10 | > 10
O=C(O)c1cc(N/N=C(\c2ccncc2)c2ccc([N+](=O)[O-])cc2)cc(C(=O)O)c1 | > 10 | > 10
O=C1Nc2ccc(Br)cc2/C1=N\N=C\c1cc([N+](=O)[O-])ccc1OC(F)F | > 10 | > 10
Cn1ccnc1/C(=N\NC(=O)c1sc2ccccc2c1Cl)c1cccc([N+](=O)[O-])c1 | > 10 | > 10
COc1ccc(C(=O)c2sc(Nc3ccccc3C)c(C(=O)Nc3ccccc3C)c2N)cc1 | 5.95 | > 10
Cc1cc(C)c(N/C=C2/C(=O)N(c3ccccc3Cl)C(=O)c3ccccc32)c(C)c1 | > 10 | > 10
Cc1cc(/C=C(\C#N)c2nc3ccccc3s2)c(C)n1-c1ccc(F)cc1 | > 10 | > 10
Cc1occc1C(=O)N/N=C/C=C1\N(C)c2ccccc2C1(C)C | > 10 | > 10
COc1ccc(-c2nn(-c3ccccc3)cc2/C=C/C(=O)N2CCc3ccccc32)cc1OC | > 10 | > 10
COc1ccc(C2CC(c3ccccc3)=NN2C(=O)COc2c(Cl)cc(Cl)c3ccc(C)nc23)cc1 (stereo unspecified) | > 10 | > 10
COc1ccccc1NC(=S)N/N=C(C)/C=C/C1C(C)=CCCC1(C)C (stereo unspecified) | > 10 | > 10
CCOC(=O)c1c(C)[nH]c(N=Nc2cccc(C(F)(F)F)c2)c1C | > 10 | > 10
CCN(C(=O)COC(=O)c1nc(-c2ccccc2)n2c1CCCCC2)c1ccccc1 | > 10 | > 10
Cc1c(/C=N/N)c2ccccn2c1C#N | > 10 | > 10
Cc1ccc(-n2c(C)cc(/C=C(\C#N)c3nc4ccccc4s3)c2C)cc1C | > 10 | > 10
FC(F)(F)/C(=N\C1(C(Cl)(Cl)Cl)Oc2ccccc2O1)NCc1ccco1 | > 10 | > 10
